In patent US20210275514A1, “COMPOUNDS FOR USE IN TREATING KIDNEY DISORDERS” (Hoffmann-La Roche Inc., priority 2018, published 2021):
Entries after “also recorded” stand apart in the source; their conditions may differ.

Experiments:
Format in all cases: in vivo
db/db mice = assay: DKD mouse model; settings: 30 mg/Kg once daily; for albuminuria (albumin to creatinine ratio): vs db/db vehicle
Experimental: B6.BKS^db/db and B6.BKS^db/+ mice were purchased from the Jackson laboratory. At the age of 14 weeks, mice started receiving vehicle or the ABCA1 inducer Cpd A (30 mg/Kg) by oral gavage once daily for 4 weeks. Body weight measurements and urine collection was performed every week. Mice were sacrificed at 18 weeks old, blood was collected and tissues were processed and analyzed as described below.
(§1) Spot urine samples were collected for all mice at baseline and time of sacrifice. Urinary albumin and creatinine were determined using an albumin ELISA kit (Bethyl laboratories) and a colorimetric assay for creatinine determination (Stanbio). Albuminuria was calculated and expressed as μg of albumin divided by mg of creatinine. For diabetic mouse model, weight and glycaemia were measured on a bi-weekly basis.
Kidney cortex sections were embedded in OCT for further analysis of immunofluorescent staining and lipid droplet. Specifically, for determination of podocyte number per glomerular cross-section was determined using 4 μm-thick tissue sections that were cut and stained with WT1 antibody (1:200, Santa Cruz) and prolong GOLD DAPI mounting media. Images were acquired with confocal microscopy using a Leica SP5 inverted microscope with the 40× wet objective. 20 glomeruli per mouse were quantified.
Electron microscopy. For transmission electron microscopy kidney cortex sections were placed in 4% paraformaldehyde, 1% gluteraldehyde in 0.1 M phosphate buffer (pH 7.4). Foot processes were quantified per 1 μm of the glomerular basement membrane.
(§2) Renal lipids species assays. Kidney cortex sections were snap frozen and utilized for lipid extraction and cholesterol content determination. The tissue was homogenized in 2 mM potassium phosphate buffer in a glass douncer on ice. Lipids in 100 μl homogenate (˜5-10 mg tissue) were extracted with 1 ml hexane:isopropanol (3:2) for two sequential 30-minute extractions. The solvent containing lipids was then dried in Nitrogen atmosphere. Lipids were then reconstituted using isopropanol: NP-40 (9:1) and cholesterol content was quantified using the Amplex red cholesterol assay kit (Invitrogen) according to the manufacturers protocol. Triglycerides in lipid extracts were assayed with a colorimetric kit according to manufacturer's instructions (Cayman). Total cholesterol and cholesterol esters were assayed using an enzymatic fluorometric method. For total cholesterol renal lipid extracts were diluted in assay buffer (100 mM potassium phosphate, 50 mM NaCl, 5 mM cholic acid, 0.1% […], pH 7.4) and incubated with same buffer supplemented with a final concentration of 1 U/ml cholesterol oxidase, 1 U/ml cholesterol esterase, 1 U/ml horseradish peroxidase, and 75 μM Amplex Red. The reactions were incubated at 37° C. for 30 min in a black opaque 96 well plate (Greiner) and fluorescence was measured in a microplate reader (Spectramax i3X, Molecular Devices) using 530 nm excitation and 580 emission.
(§3) Cholesterol esters were assayed using a direct method described by Mizoguchi et al (Mizoguchi, 2004). Briefly 150 μl of FC decomposition reagent (45 U/ml bovine catalase and 1 U/ml cholesterol oxidase, in assay buffer described above) was added to 25 μl of sample containing up to 1 mM total cholesterol. Free cholesterol was allowed to decompose overnight at 37° C. and then 75 μl of 4× cholesterol ester detection reagent (1 U/ml cholesterol oxidase, 4 U/ml cholesterol esterase, 24 U/ml horseradish peroxidase, 300 μM Amplex Red) was added. Reaction was incubated at 37° C. for 30 min and fluorescence was measured as described above for total cholesterol. 1 mM of cholesterol and 5 μM of cholesterol oleate standards were included as internal controls to validate assay sensibility and specificity.
Pathological evaluation. Kidney cortex sections were paraffin-embedded and cut at 4 μm thick for periodic acid-Schiff (PAS) and HE. […]

129 Col4a3 KO mice [1] = assay: Alport mouse model, late study of survival, treatment from 6 weeks of age; settings: 100 mg/Kg/day oral gavage started in 6 weeks old mice
Experimental: (§4) 129 Col4a3^tm1/Dec/J mice were purchased from Jackson Labs and bred to generate Col4a3 KO mice. Mice were genotyped and selected using the primers: F ([…]), R ([…]) and Rm ([…]) in a PCR reaction (94 C for 5 min, followed by 30 cycles of 30 sec at 95 C, 15 sec at 60 C and 30 sec 72 C, and 1 min at 72 C). 129 Col4A3-KO mice were divided into two groups of 5 mice (males and females) each. At the age of 4 weeks, mice started receiving either vehicle or Cpd G (100 mg/Kg) by oral gavage once daily for 4 weeks. Body weight measurements and spot urine collection was performed once a week. Animals were sacrificed at the end of the treatment at the age of 8 weeks. A late study was also performed to evaluate if treatment of Col4A3-KO mice at time of established disease would prolong mice survival. In this study, mice were treated with Cpd G (100 mg/Kg/day) by daily oral gavage starting at 6 weeks of age and survival was assessed.

129 Col4a3 KO mice [2] = assay: Alport mouse model, treatment from 4 weeks of age
Experimental: as §4, §1
Lipid droplet staining Filtered Oil-Red O-Isopropanol solution (Electron Microscopy Science, PA) was diluted with water (6:4). 4 μm kidney sections were incubated with 100 μl freshly prepared Oil-Red O solution (ORO) for 15 minutes and counterstained with Hematoxylin Harris Hg Free (VWR, PA) to detect lipid deposition. Glomeruli staining was evaluated using a light microscope (Olympus BX 41, Tokyo, Japan).
as §2
as §3, with “specificity. […]” for “specificity.”

[3] = 100 mg/Kg once daily, 4 weeks from age 4 weeks, vs vehicle

Row | Compound | Blood urea nitrogen (BUN) (db/db mice; 4 weeks) | cholesterol esters in kidney cortex (db/db mice; 4 weeks) | mesangial expansion (PAS stained sections) (db/db mice; 4 weeks) | podocyte foot process effacement (TEM) (db/db mice; 4 weeks) | podocyte number (WT1 positive cells) (db/db mice; 4 weeks) | albuminuria (albumin to creatinine ratio) (db/db mice; after four weeks of treatment (18 weeks)) | albuminuria (albumin to creatinine ratio) (db/db mice; after two weeks of treatment (16 weeks)) | increased life span (129 Col4a3 KO mice [1]) | progression to ESRD (129 Col4a3 KO mice [2]; 100 mg/Kg once daily, 4 weeks from age 4 weeks) | Albuminuria (129 Col4a3 KO mice [2]; [3]) | BUN (129 Col4a3 KO mice [2]; [3]) | Body weight loss (129 Col4a3 KO mice [2]; [3]) | mesangial expansion (PAS-stained kidney sections) (129 Col4a3 KO mice [2]; [3]) | serum creatinine (129 Col4a3 KO mice [2]; [3]) | lipid accumulation in kidney cortex sections (Oil-red O staining) (129 Col4a3 KO mice [2]; 8 week old mice, 28 days treatment) | cholesterol ester in kidneys (129 Col4a3 KO mice [2]; 8 week old mice, 28 days treatment, normalized to total protein)
1 | O=C(N[C@@H]1CCCC[C@H]1O)c1ccc(OCC(F)(F)F)c(-c2ccc(Cl)c(Cl)c2)n1 [Cpd A, 6-(3,4-Dichlorophenyl)-N-[(1R,2R)-2-hydroxycyclohexyl]-5-(2,2,2-trifluoroethoxy)pyridine-2-carboxamide] | significantly improved | significant reduction | improved | improved | improved | even further reduction | reduction in albuminuria | – | – | – | – | – | – | – | – | –
2 | O=C(N[C@@H]1CCCC[C@H]1O)c1cnc(OCC(F)(F)F)c(-c2ccc(Cl)c(Cl)c2)c1 [Cpd G, 5-(3,4-dichloro-phenyl)-N-((1R,2R)-2-hydroxy-cyclohexyl)-6-(2,2,2-trifluoro-ethoxy)-nicotinamide] | – | – | – | – | – | – | – | ~15% | delays progression to end stage renal disease; also recorded: delayed progression to ESRD | significantly less | significantly less | lost less weight | significantly less mesangial expansion | significantly less | reduced | reduces esterified cholesterol accumulation; also recorded: significantly reduced
